In article PMC8783508, “A novel D-amino acid peptide with therapeutic potential (ISAD1) inhibits aggregation of neurotoxic disease-relevant mutant Tau and prevents Tau toxicity in vitro” (Alzheimer's Research & Therapy, 2022):
Non-standard residues stand in square brackets, D forms with d. Residues, ends and D or L forms follow the SMILES beside them.

Tests used:
N2a-Tau^RDΔK cells [1] = assay: LDH release, externally added Tau^RDΔK aggregates; type: cell-based; settings: 10 μM Tau, 100 μM peptide final, pre-incubated, 24 h on cells, n = 3
Procedure: (§1) N2a cells expressing Tau^RDΔK were plated on poly D-lysine-coated 96-well plates with a density of 25,000 cells/well. At 70 to 80% confluence, the cells were treated for 24 h with various concentrations of D-peptides (25, 50, 100, and 250 μM) or Tau^RDΔK (10 μM final concentration) in the presence of ISAD1 and ISAD1rev (100 μM final concentration). The ability of D-peptides to neutralize the toxicity of Tau^RDΔK oligomers/fibrils was investigated by measuring the amount of released LDH (Roche Diagnostics, Mannheim, Germany). Therefore, 50 μL of each well was transferred to a fresh 96-well plate and 50 μL of reagent was added followed by a 30-min incubation period at RT. Finally, 50 μL of stop solution (1 N HCl) was added and absorbance was recorded at 492 nm (TECAN spectrofluorometer, Männedorf, Switzerland). Absorbance values were corrected by background values and the percentage of LDH release was calculated.

Tau^FL-A152T = target: T1, Tau^FL-A152T (Homo sapiens, UniProt P10636, A469T); assay: Fibrillization of Tau^FL-A152T monitored by ThS assay; type: biochemical; settings: Tau:peptide = 1:1; 1:5; 1:10
T1 construct: Tau^FL-A152T Full-length Tau mutant A152T
T1 sequence (P10636 1-441 isoform P10636-8 A152T): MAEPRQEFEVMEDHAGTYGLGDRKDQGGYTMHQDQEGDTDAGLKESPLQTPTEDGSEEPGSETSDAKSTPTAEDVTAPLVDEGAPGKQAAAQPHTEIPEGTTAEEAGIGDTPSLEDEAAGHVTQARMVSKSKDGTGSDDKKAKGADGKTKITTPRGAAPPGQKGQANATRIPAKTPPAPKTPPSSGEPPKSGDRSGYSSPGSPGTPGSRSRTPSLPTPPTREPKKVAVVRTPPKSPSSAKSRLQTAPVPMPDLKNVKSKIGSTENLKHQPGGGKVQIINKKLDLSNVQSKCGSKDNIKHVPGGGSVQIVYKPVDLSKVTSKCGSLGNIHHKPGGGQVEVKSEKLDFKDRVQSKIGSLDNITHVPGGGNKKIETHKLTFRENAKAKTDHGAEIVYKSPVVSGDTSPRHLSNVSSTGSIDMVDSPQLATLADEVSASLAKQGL
Procedure: For Tau fibrillization inhibition assays, 10 μM Tau mutant protein (Tau^RDΔK, Tau^FLΔK, Tau^FL-A152T, Tau^FL-P301L) was incubated in BES buffer (N,N-bis(2-hydroxyethyl)-2-aminoethanesulfonic acid, pH 7) in the presence of 2.5 μM heparin at 37 °C for 24 h with and without novel D-peptides (ISAD1 and ISAD1rev) at different concentrations (1 nM to 200 μM). Final concentration of 20 μM ThS was used for monitoring fibrillization. The assay was performed with 40-μl sample volume per well in a 384-well microtiter plate (Thermo LabSystems, Dreieich, Germany). The fibrillization of Tau was monitored by ThS and the relative fluorescence intensity of ThS was read out at 440 excitation/521 emission nm in a Tecan micro titer plate reader (Tecan, Männedorf, Switzerland).

[2] = DLS of D-peptides alone with heparin; type: physicochemical; settings: 100 μM D-peptide, 2.5 µM heparin 16000, 24 hours
Procedure: After the ThS assay (end time point, 24 h), the samples were used for DLS measurements. Twenty microliters of the sample was placed in a quartz batch cuvette (ZEN2112) and the measurement was performed at 25 °C in a Zetasizer Nano S instrument (Malvern Instruments, Herrenberg, Germany). The sample was thermally equilibrated at 25 °C for 2 min. The mean value of the intensities of an individual sample was determined over 3 measurements with 15 runs each. Analysis and averaging of the collected data were performed with the Zetasizer software 7.11 (Malvern Instruments, Herrenberg, Germany) and the result is represented as a volume graph. Tau^RDΔK fibrils (Tau+heparin) formed in the absence of D-peptides was used as a positive control.
100 μM of D-peptides and 2.5 µM of heparin 16000 (H16K) were incubated together for 24 hours and measured by DLS.

N2a-Tau^RDΔK cells [3] = assay: LDH release with the peptides alone; type: cell-based; settings: 25, 50, 100, 250 μM peptide, 24 h, n = 3
Procedure: as §1

N2a-Tau^RDΔK cells [4] = assay: MTT, toxicity of externally added Tau^RDΔK aggregates; type: cell-based; settings: Tau^RDΔK pre-incubated with peptide 1:10, 24 h, 37 °C; 10 μM Tau, 100 μM peptide final, 24 h on cells, n = 3
Procedure: Cell viability was analyzed in accordance with the manufacturer’s protocol (Roche Diagnostics, Mannheim, Germany; cell proliferation kit II (MTT)). This assay is based on the cleavage of the yellow tetrazolium salt MTT into purple formazan dye by metabolic active cells. The color changes only in viable cells and can be directly quantified using a scanning multiwell spectrophotometer. In all experiments, the cells were grown as described previously. The cells (25,000 cells/well or 80% confluence) were plated on poly D-lysine-coated 96-well plates (Greiner Bio-One GmbH, Frickenhausen, Germany) for stronger attachment from overnight to 24 h at 37 °C. Fibrillized Tau^RDΔK was generated by incubating 200 μM Tau^RDΔK in BES buffer at 37 °C for 24 h in the presence of 2 mM D-peptides (Tau^RDΔK:peptide = 1:10). Successful fibrillization was verified using ThS (5 μM Tau^RDΔK, 10 μM ThS) measurement. The aggregated Tau^RDΔK (10 μM final concentration), Tau^RDΔK (10 μM) + peptide (100 μM) samples (ISAD1 and ISAD1rev), buffer only (negative control, set to 100% cell viability), and TritonX-100 (2%, cytotoxic agent, positive control) were incubated on N2a-Tau^RDΔK cells (100 μl solution) for another 24 h. The cell viability was measured in accordance with the manufacturer’s protocol.

Tau^RDΔK = target: T2, Tau^RDΔK (Homo sapiens, UniProt P10636, DEL597-597); assay: Pelleting assay and western blot, Tau^RDΔK; type: biochemical; settings: 10 μM Tau, 100 μM peptide, 24 h, 61,000 rpm 60 min, K9JA western blot
T2 construct: Tau^RDΔK Pro-aggregant repeat domain Tau mutant ΔK280; made in house
T2 sequence (P10636 with tags, fused parts or gaps DEL597-597): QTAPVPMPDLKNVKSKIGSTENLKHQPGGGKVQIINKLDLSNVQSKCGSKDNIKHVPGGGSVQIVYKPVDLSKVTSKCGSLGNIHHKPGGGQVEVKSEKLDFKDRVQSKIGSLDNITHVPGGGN
Procedure: After the ThS assay (end time point, 24 h), 70 μl of each sample (pooled together from 2 wells) was centrifuged in a Beckmann coulter (Optima Max Ultra Centrifuge, TLA 100.3 rotor) at 61,000 rpm for 60 min at 4 °C. After centrifugation, the supernatant was separated from the pellet. Then, the pellet was dissolved in BES buffer in an equal volume as the supernatant. For the following western blot, 12-μl samples were mixed with 3-μl SDS-sample buffer (5x), heated for 5 min at 95 °C, and loaded onto a 8–16% SDS tris-glycine-gel (BioRad, Feldkirchen, Germany). The proteins were transferred to a polyvinylidene fluoride (PVDF) membrane. After the transfer, the membrane was blocked in 5% non-fat dry milk. After washing the membrane three times for 10 min with TBST, the primary pan-Tau K9JA antibody (1:5000; Agilent, Waldbronn, Germany) was incubated for 1 h at RT with gentle agitation, followed by again 3-times washing with TBST. For detection on western blot, the secondary antibody (goat anti-rabbit HRP, Agilent, Waldbronn, Germany) was incubated in a 1:2000 dilution for 1 h at RT with shaking. […] The quantification of intensities was performed using ImageJ.

SMILES: CC(C)C[C@@H](NC(=O)[C@@H](CO)NC(=O)[C@@H](CC(C)C)NC(=O)[C@H](NC(=O)[C@@H](CC(=O)O)NC(=O)[C@@H](C)NC(=O)[C@@H](C)NC(=O)[C@H](N)CO)[C@H](C)O)C(=O)N[C@H](CCCCN)C(=O)N[C@H](Cc1ccccc1)C(=O)N[C@@H](C(=O)N[C@H](CO)C(=O)O)C(C)C [ISAD1rev] (H-[dS][dA][dA][dD][dT][dL][dS][dL][dK][dF][dV][dS]-OH; N-terminus and C-terminus assumed)
- Effect on toxicity of Tau aggregates, LDH release (N2a-Tau^RDΔK cells [1]): Low LDH release levels
- Inhibition of Tau^FL-A152T fibrillization, in words (Tau^FL-A152T): weak inhibitory effects
- Particle size of peptide alone in the presence of heparin (DLS) [2]: < 2 nm
- Cytotoxicity, LDH release (N2a-Tau^RDΔK cells [3]): do not induce toxic effects
- Effect on toxicity of Tau aggregates, cell viability (MTT) (N2a-Tau^RDΔK cells [4]): preserving cell viability
- Distribution of Tau^RDΔK between pellet and supernatant (Tau^RDΔK): only apparent in the pellet
